This is an account of results in patent US8367710B2, “Bicyclo-substituted pyrazolon azo derivatives, preparation process and pharmaceutical use thereof” (Jiangsu Hengrui Medicine Co. Ltd., priority 2008, dated 2013).

The structures appear in SMILES notation.

A short description of series [1]: Pharmacokinetics assay in rats after intragastric administration. The format is in vivo. To be noted: both sexes, Sprague-Dawley, rat, plasma, po, SD rats, 5 mg/Kg; for Vd/F: read-out: Apparent Distribution Volume Vz/F; for CL/F: read-out: Clearance CL/F (converted); for AUC: read-out: Curve Area AUC; for half-life: read-out: Half-Life t½ (converted); for MRT: read-out: Mean Residence Time MRT; for Cmax: read-out: Plasma Conc. Cmax. On the procedure: Test Example 1: Pharmacokinetics assay of the compounds of the present disclosure
The pharmacokinetics of the compounds of the present disclosure was studied and evaluated in rats.
The test compound was diluted with 1% sodium carboxymethyl cellulose to 0.5 mg/mL (calculated as the free acid form) of suspension before use.
24 healthy adult SD rats, male and female in half, were divided into […]. After an overnight fast, the rats were administered intragastrically at a dose of 5.0 mg/kg (calculated as the free acid form), at a volume of 10 mL/kg.
24 healthy adult SD rats, male and female in half, were administered intragastrically at a dose of 5.0 mg/kg after an overnight fast. Blood samples (0.2 mL) were taken from eye socket at pre administration and at 0.5, 1.0, 2.0, 3.0, 4.0, 5.0, 6.0, 8.0, 11.0, 14.0, 24.0, 36.0 and 48.0 hours post administration, which were stored in heparinized tubes and centrifuged for 10 minutes at 3,500 rpm. The plasma samples were stored at −20° C. until analysis.
50 μL of rat plasma, obtained at various time points after administration, 20 μL of internal standard solution and 20 μL of a solvent mixture of methanol and water (80:20, v/v) were mixed well, and then 150 μL of methanol was added to result in protein precipitation. Then the mixture was mixed for 1 minute using a vortexer and centrifuged for 10 minutes at 13,000 rpm. 20 μL of the supernatant was analyzed by LC/MS/MS.
50 μL of blank plasma was spiked with a series of standard solutions to produce final concentrations of 1.0, 5.0, 25.0, 50.0, 100.0, 250.0, 500.0 ng/mL, followed by addition of 20 μL of internal standard solution, which was treated according to plasma sample pretreatment protocol. A typical calibration curve equation was obtained with plasma concentration as the abscissa and the chromatographic peak area ratio of sample to internal standard as the ordinate, using weighted least squares method (w=1/x^2) for linear regression.
The compartmental model of pharmacokinetics was fitted for the test compounds and the major pharmacokinetic parameters were calculated in which Cmax and tmax were the actually measured values.

In series [2] the target is T1, human TPO receptor (Homo sapiens, UniProt P40238).
T1 sequence (P40238 26-635): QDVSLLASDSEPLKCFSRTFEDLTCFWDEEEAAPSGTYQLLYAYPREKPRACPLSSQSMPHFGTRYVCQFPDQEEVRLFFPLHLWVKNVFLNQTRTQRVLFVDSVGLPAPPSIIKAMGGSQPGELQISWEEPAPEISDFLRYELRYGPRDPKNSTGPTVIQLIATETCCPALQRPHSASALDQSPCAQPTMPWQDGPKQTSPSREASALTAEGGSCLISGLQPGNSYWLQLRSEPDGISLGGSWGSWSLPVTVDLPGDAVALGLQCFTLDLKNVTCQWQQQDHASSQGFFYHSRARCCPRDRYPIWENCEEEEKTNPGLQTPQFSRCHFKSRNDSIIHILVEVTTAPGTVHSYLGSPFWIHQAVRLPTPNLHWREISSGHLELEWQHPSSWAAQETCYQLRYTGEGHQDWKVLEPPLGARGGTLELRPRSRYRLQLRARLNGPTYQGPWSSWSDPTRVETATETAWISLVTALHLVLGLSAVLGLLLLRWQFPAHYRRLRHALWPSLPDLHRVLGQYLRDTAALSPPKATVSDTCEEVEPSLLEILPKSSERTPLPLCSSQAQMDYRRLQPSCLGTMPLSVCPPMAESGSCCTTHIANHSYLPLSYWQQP
The experiment in a line: pro-proliferation effect on BAF3-TPOR cell (CCK-8). The format is cell-based, mouse. The note with it: BAF3-TPOR cells, proliferation relative to rhTPO positive control. The procedure: The sequence of primers which contains multi-sites mutation was designed as follows: […]
The E. coli DH5α competent cell was transformed with mutated plasmid, and positive colonies were picked up through ampicillin selection.
(2) BAF3-TPOR stable transfected cell line: the following method was used to construct the BaF3 cell which stably over-expressed functional human TPO receptor. […] The stable transfected cells BAF3-TPOR were selected with G418 (Gibco, US), then incubated with RPMI1640 medium plus 10% FBS (Gibco, US), […] G418, 5 ng/mL, rmIL-3 (Chemicon, US).
(1) Washing cells by centrifugation: a suitable amount of cell suspension was centrifuged at 1000 rpm for 5 minutes, and the supernatant was discarded. 10 mL of cell culture media without containing IL-3 was added. Then the resulting cell suspension was centrifuged at 1000 rpm for 5 minutes, and the supernatant was discarded.
(2) 1 mL of cell culture media without containing IL-3 was added to beat upon them to equality, and the number of a suitable amount of cell suspension was counted after dilution.
(3) According to the result of the cell counting, a cell suspension in a concentration of 100,000 cell/mL was prepared.
(4) 100 μL of cell suspension was transferred to each well of 96-well culture plate, and there were 3 parallel wells, that is, there were a blank control group (B), a negative control group (N), a positive control group of TPO (P) and a test compound group (S).
(5) The test compound was dissolved in DMSO to prepare a 10 mM stock solution, and then the solution was diluted with RPMI 1640 medium into a series of test samples at different concentration: 30 μM, 10 μM, 3 μM, 1 μM, 0.3 μM, 0.1 μM, 0.03 μM, 0.01 μM, 0.003 μM, 0.001 μM.
(6) 10 μL of test compound solution was transferred to each well respectively; 1 μL of rhTPO (10 μg/mL) was added to positive control well.
(7) The plates were incubated in an incubator at 5% CO2 and 37° C. for 24 hours.
(9) OD value was detected at 450 nm by VICTOR3 (Perkin Elmer 1420-120) plate reader.
(1) The proliferation rate was calculated as follows: Rate=[(S−B)/(P−B)]*100%
S: OD value of wells which contains test compound.
B: OD value of blank control wells
P: OD value of positive control wells
(2) The EC50 value was calculated by Origin 7.0 software.

On to `CC1=NN(c2ccc3c(c2)CCC3)C(=O)/C1=N\Nc1cccc(-c2cccc(C(=O)O)c2)c1O` [Example 1, 2′-Hydroxy-3′-[N′-(1-indan-5-yl-3-methyl-5-oxo-1,5-dihydro-pyrazol-4-ylidene)-hydrazino]-biphenyl-3-carboxylic acid], for which, in series [1], the Vd/F was determined as 0.35 ± 0.18 L/kg, the CL/F is 0.817 mL/min/kg, the AUC worked out at 132000 ± 47000 ng·h/mL and the half-life is 5.39 ± 0.94 h. In series [1], the MRT came to 4.96 ± 1.16 h and the Cmax amounted to 29000 ± 11400 ng/mL.
As for `CC1=NN(c2ccc3c(c2)CCCC3)C(=O)/C1=N\Nc1cccc(-c2cccc(C(=O)O)c2)c1O` [Example 3, 2′-Hydroxy-3′-{N′-[3-methyl-5-oxo-1-(5,6,7,8-tetrahydro-naphthalen-2-yl)-1,5-dihydro-pyrazol-4-ylidene]-hydrazino}-biphenyl-3-carboxylic acid], the midpoint of the response in series [2], the EC50, lay at 310 nM.
Same read-out and setting: then `CC1=NN(c2ccc3c(c2)CCCC3)C(=O)/C1=N\Nc1cc(F)cc(-c2cccc(C(=O)O)c2)c1O` [Example 4, 5′-Fluoro-2′-hydroxy-3′-{N′-[3-methyl-5-oxo-1-(5,6,7,8-tetrahydro-naphthalen-2-yl)-1,5-dihydro-pyrazol-4-ylidene]-hydrazino}-biphenyl-3-carboxylic acid], with 283 nM; and `CC1=NN(c2ccc3c(c2)CC3)C(=O)/C1=N\Nc1cccc(-c2cccc(C(=O)O)c2)c1O` [Example 5, 3′-[N′-(1-Bicyclo[4.2.0]octa-1(6),2,4-trien-3-yl-3-methyl-5-oxo-1,5-dihydro-pyrazol-4-ylidene)-hydrazino]-2′-hydroxy-biphenyl-3-carboxylic acid], with 354 nM; and `CC1=NN(c2ccc3c(c2)CCO3)C(=O)/C1=N\Nc1cccc(-c2cccc(C(=O)O)c2)c1O` [Example 7, 3′-{N′-[1-(2,3-dihydro-benzofuran-5-yl)-3-methyl-5-oxo-1,5-dihydro-pyrazol-4-ylidene]-hydrazino}-2′-hydroxy-biphenyl-3-carboxylic acid], with 265 nM.
Still for that read-out and setting: then `CC1=NN(c2ccc3c(c2)CCCC3)C(=O)/C1=N\Nc1cc(C)cc(-c2cccc(C(=O)O)c2)c1O` [Example 11, 2′-Hydroxy-5′-methyl-3′-{N′-[3-methyl-5-oxo-1-(5,6,7,8-tetrahydro-naphthalen-2-yl)-1,5-dihydro-pyrazol-4-ylidene]-hydrazino}-biphenyl-3-carboxylic acid], with 257 nM; and `CC1=NN(c2ccc3c(c2)CCO3)C(=O)/C1=N\Nc1cc(C)cc(-c2cccc(C(=O)O)c2)c1O` [Example 13, 3′-{N′-[1-(2,3-Dihydro-benzofuran-5-yl)-3-methyl-5-oxo-1,5-dihydro-pyrazol-4-ylidene]-hydrazino}-2′-hydroxy-5′-methyl-biphenyl-3-carboxylic acid], with 141 nM.
In the case of `CC1=NN(c2ccc3c(c2)CCCC3)C(=O)/C1=N\Nc1cccc(-c2ccc(C(=O)O)o2)c1O` [Example 15, 5-(2-Hydroxy-3-{N′-[3-methyl-5-oxo-1-(5,6,7,8-tetrahydro-naphthalen-2-yl)-1,5-dihydro-pyrazol-4-ylidene]-hydrazino}-phenyl)-furan-2-carboxylic acid], in series [1], the Vd/F was determined as 1.36 ± 0.7 L/kg, the CL/F is 4.67 mL/min/kg, the AUC is 23800 ± 17300 ng·h/mL and the half-life is 3.47 ± 0.79 h. In series [1], the MRT worked out at 4.09 ± 0.99 h and the Cmax is 6630 ± 3780 ng/mL.
Regarding `CC1=NN(c2ccc3c(c2)C(C)(C)CC3)C(=O)/C1=N\Nc1cc(C)cc(-c2cccc(C(=O)O)c2)c1O` [Example 16, 3′-{N′-[1-(3,3-Dimethyl-indan-5-yl)-3-methyl-5-oxo-1,5-dihydro-pyrazol-4-ylidene]-hydrazino}-2′-hydroxy-5′-methyl-biphenyl-3-carboxylic acid], the EC50 in series [2] came to 160 nM.
The same measure, in the same setting: with `CC1=NN(c2ccc3c(c2)C(C)(C)CC3(C)C)C(=O)/C1=N\Nc1cc(C)cc(-c2cccc(C(=O)O)c2)c1O` [Example 20, 2′-Hydroxy-5′-methyl-3′-{N′-[3-methyl-5-oxo-1-(1,1,3,3-tetramethyl-indan-5-yl)-1,5-dihydro-pyrazol-4-ylidene]-hydrazino}-biphenyl-3-carboxylic acid] the figure was 89 nM; with `CC1=NN(c2ccc3c(c2)CC3)C(=O)/C1=N\Nc1cccc(-c2ccc(C(=O)O)o2)c1O` [Example 22, 5-{3-[N′-(1-Bicyclo[4.2.0]octa-1(6),2,4-trien-3-yl-3-methyl-5-oxo-1,5-dihydro-pyrazol-4-ylidene)-hydrazino]-2-hydroxy-phenyl}-furan-2-carboxylic acid], 15 nM.
As for `CC1=NN(c2ccc3c(c2)C(C)(C)CC3(C)C)C(=O)/C1=N\Nc1cccc(-c2ccc(C(=O)O)o2)c1O` [Example 25, 5-(2-Hydroxy-3-{N′-[3-methyl-5-oxo-1-(1,1,3,3-tetramethyl-indan-5-yl)-1,5-dihydro-pyrazol-4-ylidene]-hydrazino}-phenyl)-furan-2-carboxylic acid], a half-maximal effect in series [2] (EC50) was put at 60 nM.
`CC1=NN(c2ccc3c(c2)CCC3)C(=O)/C1=N\Nc1cccc(-c2coc(C(=O)O)c2)c1O` [Example 31, 4-{2-Hydroxy-3-[N′-(1-indan-5-yl-3-methyl-5-oxo-1,5-dihydro-pyrazol-4-ylidene)-hydrazino]-phenyl}-furan-2-carboxylic acid]: a half-maximal effect in series [2] (EC50) was put at 27 nM.
In series [2], `CC1=NN(c2ccc3c(c2)CC3)C(=O)/C1=N\Nc1cccc(-c2ccc(C(=O)O)s2)c1O` [Example 37, 5-{3-[N′-(1-Bicyclo[4.2.0]octa-1(6),2,4-trien-3-yl-3-methyl-5-oxo-1,5-dihydro-pyrazol-4-ylidene)-hydrazino]-2-hydroxy-phenyl}-thiophene-2-carboxylic acid] displayed an EC50 of 90 nM.
